Measurements reported in patent publication US10167262B2, “Herbicidal substituted 3-arylpyrazoles” (FMC CORPORATION, priority 2014, dated 2019).

Key:
Type in all cases: in vivo
[1] = test system: barnyardgrass (Echinochloa crus-galli); assay: Test A pre-/postemergence greenhouse herbicide test, visual injury rating 0-100
Outline: (§1)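 Directed soil spray (pre) and foliar spray (post, 1–2 leaf) of solvent/surfactant-formulated compound; greenhouse ~10 d; visual injury 0–100 vs untreated controls.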

[2] = test system: wheat (Triticum aestivum); assay: as above
Outline: as §1

[3] = test system: corn (Zea mays); assay: as above
Outline: as §1

[4] = test system: large (Lg) crabgrass (Digitaria sanguinalis); assay: as above
Outline: as §1

[5] = test system: pigweed (Amaranthus retroflexus); assay: as above
Outline: as §1

[6] = test system: morningglory (Ipomoea spp.); assay: as above
Outline: as §1

[7] = test system: giant foxtail (Setaria faberii); assay: as above
Outline: as §1

[8] = test system: velvetleaf (Abutilon theophrasti); assay: as above
Outline: as §1

[9] = test system: barnyardgrass (Echinochloa crus-galli); assay: Test B flooded paddy test, plant response rating 0-100; settings: Flood, 250 g ai/ha; scale 0 to 100 (0 no effect, 100 complete control); 13 to 15 days
Outline: (§2)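 In-water treatment: compound dosed into 3 cm flood over soil, water level unchanged throughout. Controls run alongside; visual assessment at day 13–15.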

[10] = test system: ducksalad (Heteranthera limosa); assay: as above; settings: Flood, 250 g ai/ha; scale 0 to 100 (0 no effect, 100 complete control); 13 to 15 days
Outline: as §2

[11] = test system: rice (Oryza sativa); assay: as above; settings: Flood, 250 g ai/ha; scale 0 to 100 (0 no effect, 100 complete control); 13 to 15 days
Outline: as §2

[12] = test system: sedge, umbrella (small-flower umbrella sedge, Cyperus difformis); assay: as above; settings: Flood, 250 g ai/ha; scale 0 to 100 (0 no effect, 100 complete control); 13 to 15 days
Outline: as §2

Structure (SMILES)	Plant response rating (0 to 100 scale), Barnyardgrass ([1]; Postemergence, 125 g ai/ha)	Plant response rating (0 to 100 scale), Barnyardgrass ([1]; Postemergence, 500 g ai/ha)	Barnyardgrass plant response rating (0 = no effect, 100 = complete control) ([1]; Preemergence, 125 g ai/ha)	Plant response rating (0 to 100 scale), Barnyardgrass ([1]; Preemergence, 500 g ai/ha)	Plant response rating (0 to 100 scale), Wheat ([2]; Postemergence, 125 g ai/ha)	Plant response rating (0 to 100 scale), Wheat ([2]; Postemergence, 500 g ai/ha)	Wheat plant response rating (0 = no effect, 100 = complete control) ([2]; Preemergence, 125 g ai/ha)	Plant response rating (0 to 100 scale), Wheat ([2]; Preemergence, 500 g ai/ha)	Corn plant response rating (0 = no effect, 100 = complete control) ([3]; Preemergence, 125 g ai/ha)	Plant response rating (0 to 100 scale), Corn ([3]; Preemergence, 500 g ai/ha)	Plant response rating (0 to 100 scale), Crabgrass, Large ([4]; Postemergence, 125 g ai/ha)	Plant response rating (0 to 100 scale), Crabgrass, Large ([4]; Postemergence, 500 g ai/ha)	Crabgrass, Large plant response rating (0 = no effect, 100 = complete control) ([4]; Preemergence, 125 g ai/ha)	Plant response rating (0 to 100 scale), Crabgrass, Large ([4]; Preemergence, 500 g ai/ha)	Plant response rating (0 to 100 scale), Pigweed ([5]; Postemergence, 125 g ai/ha)	Plant response rating (0 to 100 scale), Pigweed ([5]; Postemergence, 500 g ai/ha)	Pigweed plant response rating (0 = no effect, 100 = complete control) ([5]; Preemergence, 125 g ai/ha)	Plant response rating (0 to 100 scale), Pigweed ([5]; Preemergence, 500 g ai/ha)	Morningglory plant response rating (0 = no effect, 100 = complete control) ([6]; Preemergence, 125 g ai/ha)	Plant response rating (0 to 100 scale), Morningglory ([6]; Preemergence, 500 g ai/ha)	also measured
CCn1cc(C(=O)c2cccnc2)c(-c2cc(Cl)cc(Cl)c2)n1 [Compound 7]	0	0	0	0	0	0	0	0	0	0	0	0	0	0	40	70	20	60	0	0	Plant response rating (0 to 100 scale), Corn ([3]; Postemergence, 125 g ai/ha): 0; Plant response rating (0 to 100 scale), Corn ([3]; Postemergence, 500 g ai/ha): 0; Plant response rating (0 to 100 scale), Morningglory ([6]; Postemergence, 125 g ai/ha): 0; Plant response rating (0 to 100 scale), Morningglory ([6]; Postemergence, 500 g ai/ha): 0; Plant response rating (0 to 100 scale), Foxtail, Giant ([7]; Postemergence, 125 g ai/ha): 0; Plant response rating (0 to 100 scale), Foxtail, Giant ([7]; Postemergence, 500 g ai/ha): 0; Foxtail, Giant plant response rating (0 = no effect, 100 = complete control) ([7]; Preemergence, 125 g ai/ha): 0; Plant response rating (0 to 100 scale), Foxtail, Giant ([7]; Preemergence, 500 g ai/ha): 0; Plant response rating (0 to 100 scale), Velvetleaf ([8]; Postemergence, 125 g ai/ha): 50; Plant response rating (0 to 100 scale), Velvetleaf ([8]; Postemergence, 500 g ai/ha): 70; Velvetleaf plant response rating (0 = no effect, 100 = complete control) ([8]; Preemergence, 125 g ai/ha): 0; Plant response rating (0 to 100 scale), Velvetleaf ([8]; Preemergence, 500 g ai/ha): 50; Plant response rating, Barnyardgrass [9]: 0; Plant response rating, Ducksalad [10]: 0; Plant response rating, Rice [11]: 0; Plant response rating, Sedge, Umbrella [12]: 0
CC(=O)Cn1cc(C(=O)c2ccccc2)c(-c2cc(Cl)cc(Cl)c2)n1 [Compound 45]	0	0	0	0	0	0	0	0	0	0	0	0	0	0	40	60	0	70	0	0	Plant response rating (0 to 100 scale), Corn ([3]; Postemergence, 125 g ai/ha): 0; Plant response rating (0 to 100 scale), Corn ([3]; Postemergence, 500 g ai/ha): 0; Plant response rating (0 to 100 scale), Foxtail, Giant ([7]; Postemergence, 125 g ai/ha): 0; Plant response rating (0 to 100 scale), Foxtail, Giant ([7]; Postemergence, 500 g ai/ha): 0; Foxtail, Giant plant response rating (0 = no effect, 100 = complete control) ([7]; Preemergence, 125 g ai/ha): 0; Plant response rating (0 to 100 scale), Foxtail, Giant ([7]; Preemergence, 500 g ai/ha): 0; Plant response rating (0 to 100 scale), Velvetleaf ([8]; Postemergence, 125 g ai/ha): 60; Plant response rating (0 to 100 scale), Velvetleaf ([8]; Postemergence, 500 g ai/ha): 80; Velvetleaf plant response rating (0 = no effect, 100 = complete control) ([8]; Preemergence, 125 g ai/ha): 20; Plant response rating (0 to 100 scale), Velvetleaf ([8]; Preemergence, 500 g ai/ha): 30; Plant response rating, Barnyardgrass [9]: 0; Plant response rating, Ducksalad [10]: 0; Plant response rating, Rice [11]: 0; Plant response rating, Sedge, Umbrella [12]: 0
C#CCn1cc(C(=O)c2cccnc2)c(-c2cc(Cl)cc(Cl)c2)n1 [Compound 9]	0	10	0	0	0	0	0	0	0	0	0	0	0	10	60	80	60	90	0	0	Plant response rating (0 to 100 scale), Morningglory ([6]; Postemergence, 125 g ai/ha): 0; Plant response rating (0 to 100 scale), Morningglory ([6]; Postemergence, 500 g ai/ha): 0; Plant response rating (0 to 100 scale), Foxtail, Giant ([7]; Postemergence, 125 g ai/ha): 0; Plant response rating (0 to 100 scale), Foxtail, Giant ([7]; Postemergence, 500 g ai/ha): 0; Foxtail, Giant plant response rating (0 = no effect, 100 = complete control) ([7]; Preemergence, 125 g ai/ha): 0; Plant response rating (0 to 100 scale), Foxtail, Giant ([7]; Preemergence, 500 g ai/ha): 20; Plant response rating (0 to 100 scale), Velvetleaf ([8]; Postemergence, 125 g ai/ha): 50; Plant response rating (0 to 100 scale), Velvetleaf ([8]; Postemergence, 500 g ai/ha): 60; Velvetleaf plant response rating (0 = no effect, 100 = complete control) ([8]; Preemergence, 125 g ai/ha): 0; Plant response rating (0 to 100 scale), Velvetleaf ([8]; Preemergence, 500 g ai/ha): 80; Plant response rating, Barnyardgrass [9]: 0; Plant response rating, Ducksalad [10]: 0; Plant response rating, Rice [11]: 0; Plant response rating, Sedge, Umbrella [12]: 0
